Measured values from patent publication US9211284B2, “Diagnosis and treatment of P.R.I.C.E. syndrome” (priority 2013, dated 2015).
“Also recorded” adds a separate entry of the source.

Tests used:
[1] = test system: patient having P.R.I.C.E. Syndrome; test: Example 1: case report of a patient with P.R.I.C.E. Syndrome, earlier medications then KAPVAY (plus inositol)
Text: The patient was tried on many psychostimulant medications, which are the gold standard for treatment of ADHD. Medications in this class include: Adderall/XR, Focalin/XR, Dexedrine, Vyvanse, Ritalin/LA/ER, Metadate ER/CD, Concerta and Daytrana.
By convention, psychiatrists refer to this phenomenon as Bipolar III or hypomania induced by medication which predicts and unmasks the development of spontaneous mood swings of genuine Bipolar to come for the patient later in life.
Nevertheless, the psychiatrist tried a series of atypical antipsychotics, including Zyprexa, Geodon, Seroquel as well as two FDA approved drugs for treatment of irritability in Autistic Disorder, Abilify and Risperdal.
The Applicant tapered and discontinued the aforementioned medications in the patient. The Applicant then titrated up KAPVAY® as follows: 0.1 mg at bedtime for a week; next, 0.1 mg twice a day for a week; next, 0.1 mg in the morning and 0.2 mg at night for one week; and finally 0.2 mg twice a day going forward.

[2] = test system: patients with Bipolar Disorder; details: post-marketing reports; cited from earlier work
[3] = test system: patient having P.R.I.C.E. Syndrome; test: Example 2: case report of a patient with P.R.I.C.E. Syndrome, earlier medications then INTUNIV (plus inositol); assay type: in vivo, human; details: Example 2 patient; for effect on the patient's symptoms (particularism, concentration) / side effects: medications given before the P.R.I.C.E. diagnosis
Procedure: They had been taking Zoloft and Abilify, as well as Melatonin to help them sleep.
The Applicant tapered and discontinued the patient's then-current medications. The Applicant then titrated up INTUNIV® 1 mg at bedtime, increasing by an additional 1 mg at bedtime every week as necessary to achieve symptom control, up to a maximum of 4 mg.

[4] = test system: patients having P.R.I.C.E. Syndrome; test: Applicant's general clinical findings in patients who meet all criteria for P.R.I.C.E. Syndrome; assay type: in vivo, human; details: patients meeting all P.R.I.C.E. criteria, Applicant's practice
Text: Both KAPVAY® and INTUNIV® are FDA-approved for treatment of ADHD. […] A psychiatrist would be led away from prescribing KAPVAY® or INTUNIV® to patients with suspected Bipolar Disorder since it is known that alpha-2 adrenergic agonists could potentially exacerbate emotional lability found in such patients.
Extended release clonidine is capable of stable therapeutic effects by maintaining a constant serum level for an extended period in order to avoid the “peak and trough” side effects of transient sedation at peak serum levels and rebound exacerbation of symptoms at trough levels. Embodiments of extended release compositions of clonidine are described in U.S. Pat. No. 5,869,100, which is incorporated herein by reference in its entirety.

[5] = cited from earlier work
[6] = Example 1 patient, medications tried before the P.R.I.C.E. diagnosis

SMILES | effect on the patient's symptoms (agitation, impulsivity, concentration, rigidity) [1, 6] | side effects ([1]; human, in vivo) | also measured
CCCC(CCC)C(=O)O [Depakote] | ineffective; also recorded: not helping their agitation | – | –
N=C(N)NC(=O)Cc1c(Cl)cccc1Cl [Tenex, N-(Aminoiminomethyl)-2,6-dichlorobenzeneacetamide; N-amidino-2-(2,6 dichlorophenyl) acetamide] | not effective | – | side effects [1, 6]: too sedative; manic symptoms in Bipolar Disorder [2]: development or exacerbation of manic symptoms
CN[C@H]1CC[C@@H](c2ccc(Cl)c(Cl)c2)c2ccccc21 [Zoloft] | – | – | effect on the patient's symptoms (particularism, concentration) [3]: did not alleviate the particularism; side effects [3]: become “wild” and unable to sleep
CNCC[C@@H](Oc1ccccc1C)c1ccccc1 [Strattera] | increased agitation and impulsivity | – | –
OCCOCCN1CCN(C2=Nc3ccccc3Sc3ccccc32)CC1 [Seroquel] | – | severe sedation, impaired their concentration further and caused an increase in both appetite and weight | –
Cc1cc2c(s1)Nc1ccccc1N=C2N1CCN(C)CC1 [Zyprexa] | – | severe sedation, impaired their concentration further and caused an increase in both appetite and weight | –
CN(C)CCC[C@@]1(c2ccc(F)cc2)OCc2cc(C#N)ccc21 [Lexapro] | worsening their agitation without helping their rigidity | – | –
O=C1CCc2ccc(OCCCCN3CCN(c4cccc(Cl)c4Cl)CC3)cc2N1 [Abilify] | – | severe sedation, impaired their concentration further and caused an increase in both appetite and weight | effect on the patient's symptoms (particularism, concentration) [3]: without improvement in concentration; side effects [3]: sedation and tremor
CC(NC(C)(C)C)C(=O)c1cccc(Cl)c1 (stereo not shown) [Wellbutrin] | increased agitation and impulsivity | – | –
CC(C)NCC(O)COc1cccc2ccccc12 (stereo not shown) [propranolol] | not effective | too sedative | –
Nc1nnc(-c2cccc(Cl)c2Cl)c(N)n1 [Lamictal] | ineffective; also recorded: not helping their agitation | – | –
NC(=O)C[S+]([O-])C(c1ccccc1)c1ccccc1 (stereo not shown) [Provigil] | increased agitation and impulsivity | – | –
Clc1cccc(Cl)c1N=C1NCCN1 [short-acting clonidine, 2,6-dichloro-N-2-imidazolidinylidene benzeneamine] | not effective | too sedative | effectiveness in treating P.R.I.C.E. Syndrome [4]: ineffective; biological half-life ([5]; after oral administration of short-acting clonidine): four to six; primary side-effect ([5]; short-acting clonidine, about an hour after the given dose): sedation; absorption from the gastrointestinal tract ([5]; short-acting oral formulation): almost completely absorbed
CNCCC(Oc1ccc(C(F)(F)F)cc1)c1ccccc1 (stereo not shown) [Prozac] | – | – | effect on the patient's symptoms (particularism, concentration) [3]: did not alleviate the particularism; side effects [3]: become “wild” and unable to sleep
[Li] [Lithium] | – | – | side effects [1, 6]: worsening the patient's concentration
Cc1nc2n(c(=O)c1CCN1CCC(c3noc4cc(F)ccc34)CC1)CCCC2 [Risperdal] | – | severe sedation, impaired their concentration further and caused an increase in both appetite and weight | side effects [3]: sedation and weight gain
CC1(C)O[C@@H]2[C@@H](CO[C@@]3(COS(N)(=O)=O)OC(C)(C)O[C@@H]23)O1 [Topamax] | ineffective | worsening the patient's concentration | –
NC(=O)N1c2ccccc2CC(=O)c2ccccc21 [Trileptal] | ineffective | worsening the patient's concentration | –
COC(=O)C(c1ccccc1)C1CCCCN1 (stereo not shown) [Daytrana] | worsen their agitation without helping their concentration | – | –
O=C1Cc2cc(CCN3CCN(c4nsc5ccccc45)CC3)c(Cl)cc2N1 [Geodon] | – | severe sedation, impaired their concentration further and caused an increase in both appetite and weight | –
O[C@H]1[C@H](O)[C@@H](O)[C@H](O)[C@@H](O)[C@H]1O [Inositol, inositol] | – | – | effectiveness in treating P.R.I.C.E. Syndrome [4]: effective in addressing residual particularism; effect on "getting stuck" on certain topics in conversation ([3]; Inositol 9000 mg twice a day added to INTUNIV): therapeutically beneficial
NC(=O)C[S@@+]([O-])C(c1ccccc1)c1ccccc1 [Nuvigil] | increased agitation and impulsivity | – | –
NC(=O)N1c2ccccc2C=Cc2ccccc21 [Tegretol] | ineffective | worsening the patient's concentration | –
